# Test results as given in US9096591B2, “Tetracyclic compounds” (Medivation Technologies, Inc., priority 2007, dated 2015).
# Where two headings read alike, the source gives them in different places.
# Tests used:
# [1] = biological target: T1, human recombinant dopamine D2L receptor (Homo sapiens, UniProt P14416); assay: Dopamine D2L radioligand binding ([3H]Spiperone); details: percent inhibition of specific binding
# T1 construct: expressed in transfected cells; host or cells: CHO cells
# Experimental: Non-specific binding was estimated in the presence of 10 μM Haloperidol. Receptor proteins were filtered and washed, the filters were then counted to determine [^3H]Spiperone specifically bound. […] Biochemical assay results are presented as the percent inhibition of specific binding in Table 6.
# [2] = biological target: T2, human recombinant histamine H2 receptor (Homo sapiens, UniProt P25021); assay: Histamine H2 radioligand binding ([125I]Aminopotentidine)
# T2 construct: expressed in transfected cells; host or cells: CHO-K1 cells
# Procedure, shortened: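 This radioligand binding assay measured displacement of [125I]Aminopotentidine from recombinant human histamine H2 receptors. Compounds were dissolved in 1% DMSO vehicle. Specific binding was calculated by subtracting non-specific binding, defined using 3 μM Tiotidine, and activity was reported as percentage inhibition of that specific binding.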
# [3] = biological target: T3, human recombinant histamine H1 receptor (Homo sapiens, UniProt P35367); assay: Histamine H1 radioligand binding ([3H]Pyrilamine)
# T3 construct: expressed in transfected cells; host or cells: CHO cells
# Procedure, shortened: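 CHO-expressed receptor in modified Tris-HCl buffer (50 mM, pH 7.4; 2 mM MgCl2, 100 mM NaCl, 250 mM sucrose); bound ligand measured after filtration and washing.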
# [4] = biological target: T4, human recombinant serotonin (5-Hydroxytryptamine) 5-HT2A receptor (Homo sapiens, UniProt P28223); assay: Serotonin 5-HT2A radioligand binding ([3H]Ketanserin); details: percent inhibition of specific binding
# T4 construct: expressed in transfected cells; host or cells: CHO-K1 cells
# Experimental: (§1) Compounds of the invention were incubated with 0.5 nM [^3H]Ketanserin for 60 minutes at 25° C. Non-specific binding was estimated in the presence of 1 μM Mianserin. Receptor proteins were filtered and washed, the filters were then counted to determine [^3H]Ketanserin specifically bound. […] Biochemical assay results are presented as the percent inhibition of specific binding in Table 6.
# [5] = biological target: T5, human recombinant serotonin (5-Hydroxytryptamine) 5-HT2C receptor (Homo sapiens, UniProt P28335); assay: Serotonin 5-HT2C radioligand binding ([3H]Mesulergine); parameters: Inhibition of ligand binding, Ser. 5-HT2C: concentration or dose not given beside the values; details: percent inhibition of specific binding
# T5 construct: expressed in transfected cells; host or cells: CHO-K1 cells
# T5 sequence (P28335 33-458): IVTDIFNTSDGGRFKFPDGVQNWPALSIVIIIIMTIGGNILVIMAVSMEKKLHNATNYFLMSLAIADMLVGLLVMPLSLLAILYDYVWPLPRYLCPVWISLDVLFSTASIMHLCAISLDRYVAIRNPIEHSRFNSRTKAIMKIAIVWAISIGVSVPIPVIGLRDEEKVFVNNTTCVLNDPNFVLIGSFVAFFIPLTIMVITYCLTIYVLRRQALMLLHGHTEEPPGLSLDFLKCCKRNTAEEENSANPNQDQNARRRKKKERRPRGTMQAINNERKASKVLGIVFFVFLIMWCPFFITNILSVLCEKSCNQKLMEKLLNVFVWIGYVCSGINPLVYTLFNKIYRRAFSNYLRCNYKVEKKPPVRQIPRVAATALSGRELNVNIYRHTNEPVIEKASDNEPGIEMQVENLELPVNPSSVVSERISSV
# Experimental: as §1, with “1” for “0.5”, “[^3H]Mesulergine” for “[^3H]Ketanserin”
# [6] = biological target: T6, human recombinant adrenergic α2B receptor (Homo sapiens, UniProt P18089); assay: Adrenergic α2B radioligand binding ([3H]Rauwolscine); parameters: Inhibition of ligand binding, Adren. alpha2B: concentration or dose not given beside the values; details: percent inhibition of specific binding
# T6 construct: expressed in transfected cells; host or cells: CHO-K1 cells
# T6 sequence (P18089 1-450): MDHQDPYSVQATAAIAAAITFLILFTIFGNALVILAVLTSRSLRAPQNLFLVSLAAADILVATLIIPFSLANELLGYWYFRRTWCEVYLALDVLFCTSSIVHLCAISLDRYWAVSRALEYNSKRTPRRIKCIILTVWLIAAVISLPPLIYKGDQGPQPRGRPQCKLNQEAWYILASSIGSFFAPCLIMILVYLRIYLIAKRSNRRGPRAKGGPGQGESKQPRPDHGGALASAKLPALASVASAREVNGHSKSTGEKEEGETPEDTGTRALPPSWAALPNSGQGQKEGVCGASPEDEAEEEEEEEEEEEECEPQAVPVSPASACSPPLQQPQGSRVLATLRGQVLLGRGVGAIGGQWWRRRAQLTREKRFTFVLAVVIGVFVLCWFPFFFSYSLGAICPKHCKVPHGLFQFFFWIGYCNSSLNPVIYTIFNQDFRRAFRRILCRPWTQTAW
# Procedure, shortened: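 Incubation ran 60 minutes at 25 °C in modified Tris-HCl buffer (50 mM, pH 7.4, 12.5 mM MgCl2, 1 mM EDTA, 0.2% BSA) using CHO-K1-expressed human receptor.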
# [7] = percent inhibition of specific binding, screened at 1 μM, read-out: Inhibition of ligand binding, Hist. H2
# [8] = read-out: Histamine Binding H1, percent inhibition of specific binding
# [9] = percent inhibition of specific binding, screened at 1 μM, read-out: Inhibition of ligand binding, Hist. H1
# T1 sequence (P14416 whole entry): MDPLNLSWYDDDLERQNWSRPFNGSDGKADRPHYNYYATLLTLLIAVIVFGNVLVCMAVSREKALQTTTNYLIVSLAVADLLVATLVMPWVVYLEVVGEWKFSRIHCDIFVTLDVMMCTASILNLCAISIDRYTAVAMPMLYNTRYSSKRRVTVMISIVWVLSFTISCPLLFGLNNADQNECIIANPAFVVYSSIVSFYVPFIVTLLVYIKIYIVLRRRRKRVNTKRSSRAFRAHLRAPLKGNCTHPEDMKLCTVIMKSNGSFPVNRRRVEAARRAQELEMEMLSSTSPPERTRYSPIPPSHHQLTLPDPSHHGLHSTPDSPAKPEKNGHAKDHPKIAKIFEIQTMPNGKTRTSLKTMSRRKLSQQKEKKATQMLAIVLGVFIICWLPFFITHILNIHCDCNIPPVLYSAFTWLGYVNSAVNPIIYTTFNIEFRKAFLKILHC
# T2 sequence (P25021 whole entry): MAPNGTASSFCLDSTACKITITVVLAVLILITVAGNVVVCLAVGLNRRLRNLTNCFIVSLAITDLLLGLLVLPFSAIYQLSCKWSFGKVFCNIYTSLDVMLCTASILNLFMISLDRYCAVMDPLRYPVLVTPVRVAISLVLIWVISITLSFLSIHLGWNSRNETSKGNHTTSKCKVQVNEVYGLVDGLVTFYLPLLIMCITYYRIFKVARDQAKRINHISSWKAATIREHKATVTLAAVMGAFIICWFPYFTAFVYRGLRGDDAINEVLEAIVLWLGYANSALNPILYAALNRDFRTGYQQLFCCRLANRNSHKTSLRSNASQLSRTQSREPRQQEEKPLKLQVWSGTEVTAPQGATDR
# T4 sequence (P28223 whole entry): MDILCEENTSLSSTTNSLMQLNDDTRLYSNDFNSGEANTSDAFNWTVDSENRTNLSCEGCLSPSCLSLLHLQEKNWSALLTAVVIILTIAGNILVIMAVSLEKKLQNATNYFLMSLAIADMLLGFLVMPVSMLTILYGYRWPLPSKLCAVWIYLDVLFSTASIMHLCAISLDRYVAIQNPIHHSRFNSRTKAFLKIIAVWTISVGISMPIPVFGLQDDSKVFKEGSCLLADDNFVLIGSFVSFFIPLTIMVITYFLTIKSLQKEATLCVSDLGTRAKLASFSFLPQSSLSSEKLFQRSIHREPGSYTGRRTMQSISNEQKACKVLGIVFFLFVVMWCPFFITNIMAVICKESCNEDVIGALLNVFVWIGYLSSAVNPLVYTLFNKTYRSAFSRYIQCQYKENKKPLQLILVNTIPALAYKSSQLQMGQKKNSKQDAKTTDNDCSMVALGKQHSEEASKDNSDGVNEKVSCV
# T3 sequence (P35367 whole entry): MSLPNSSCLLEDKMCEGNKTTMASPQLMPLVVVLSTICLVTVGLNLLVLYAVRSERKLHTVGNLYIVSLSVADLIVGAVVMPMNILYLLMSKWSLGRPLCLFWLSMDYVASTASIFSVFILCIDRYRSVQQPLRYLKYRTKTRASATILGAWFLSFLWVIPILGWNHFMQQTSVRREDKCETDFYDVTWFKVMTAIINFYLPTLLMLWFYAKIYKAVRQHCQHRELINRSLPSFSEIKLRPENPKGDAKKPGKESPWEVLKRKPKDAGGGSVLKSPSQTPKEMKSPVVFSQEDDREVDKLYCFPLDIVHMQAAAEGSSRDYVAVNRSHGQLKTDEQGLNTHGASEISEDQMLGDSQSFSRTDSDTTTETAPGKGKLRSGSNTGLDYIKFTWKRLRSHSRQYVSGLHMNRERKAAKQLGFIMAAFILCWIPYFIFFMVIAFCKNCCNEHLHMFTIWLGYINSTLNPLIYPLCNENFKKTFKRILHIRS
SMILES,"Inhibition of ligand binding, Dop. D2L [1]","inhibition at 0.1 µM ([2]; 0.1 μM compound, 0.1 nM [125I]Aminopotentidine, read-out: Histamine Binding H2, percent inhibition of specific binding)","inhibition at 0.3 µM ([2]; 0.3 μM compound, 0.1 nM [125I]Aminopotentidine, read-out: Histamine Binding H2, percent inhibition of specific binding)","inhibition at 1 µM ([2]; 1 μM compound, 0.1 nM [125I]Aminopotentidine, read-out: Histamine Binding H2, percent inhibition of specific binding)","inhibition at 1 µM [2, 7]","inhibition at 0.03 µM [3, 8]","inhibition at 0.1 µM [3, 8]","inhibition at 1 µM [3, 8]","inhibition at 1 µM ([3]; read-out: Inhibition of ligand binding, Hist. H1)","Inhibition of ligand binding, Ser. 5-HT2A [4]","Inhibition of ligand binding, Ser. 5-HT2C [5]","Inhibition of ligand binding, Adren. alpha2B [6]","inhibition at 1 µM [3, 9]","inhibition at […] ([2]; […] compound, 0.1 nM [125I]Aminopotentidine, read-out: Histamine Binding H2, percent inhibition of specific binding)"
"CN1CCc2c(c3ccccc3n2CCc2ccccc2)C1 [Compound 2, 2,3,4,5-tetrahydro-2-methyl-5-phenethyl-1H-pyrido[4,3-b]indole]",70%,34%,56%,81%,81%,31%,54%,87%,87%,96%,97%,,,
CN1CCc2c(c3cc(Cl)ccc3n2CCc2cccnc2)C1 [Compound 55],29%,,,,62%,,,,,86%,87%,90%,101%,
CN1CCc2c(c3cc(Cl)ccc3n2CCc2ccncc2)C1 [Compound 56],62%,,,,76%,,,,,92%,87%,119%,100%,
Cc1ccc2c(c1)c1c(n2CCc2cccnc2)CCN(C)C1 [Compound 60],24%,,,,56%,,,,,84%,90%,95%,101%,
Cc1ccc2c(c1)c1c(n2CCc2cnccn2)CCN(C)C1 [Compound 62],−3%,,,,15%,,,,,85%,88%,90%,93%,
Cc1ccc2c(c1)c1c(n2CCc2ccc(C(F)(F)F)nc2)CCN(C)C1 [Compound 68],29%,,,,49%,,,,,98%,78%,111%,99%,
CN1CCc2c(c3cc(Cl)ccc3n2CCN2CCCCC2)C1 [Compound 189],0%,,,,87%,,,,,,85%,72%,94%,
"Cc1ccc2c(c1)c1c(n2CCc2ccccc2)CCN(C(=O)OCC(Cl)(Cl)Cl)C1 [Compound 227, 2,2,2-trichloroethyl 3,4-dihydro-8-methyl-5-phenethyl-1H-pyrido[4,3-b]indole-2(5H)-carboxylate]",,,,,1%,,,,,−2%,4%,0%,-5%,
"Cc1ccc2c(c1)c1c(n2CCc2ccccc2)CCNC1 [Compound 228, 2,3,4,5-tetrahydro-8-methyl-5-phenethyl-1H-pyrido[4,3-b]indole]",,,,,15%,,,,,77%,82%,101%,81%,
CC(C)N1CCN(C(=O)Cn2c3c(c4cc(Cl)ccc42)CN(C)CC3)CC1 [Compound 248],2%,,,,7%,,,,,,59%,75%,85%,
CN1CCc2c(c3cc(F)ccc3n2CCc2ccc(Cl)cc2)C1 [Compound 249],64%,,,,88%,,,,,,98%,109%,100%,
Cc1ccc2c(c1)c1c(n2CC(=O)N2CCC(C)CC2)CCN(C)C1 [Compound 251],−7%,,,,21%,,,,,,23%,8%,55%,
CN1CCc2c(c3cc(F)ccc3n2CCc2ccc(F)cc2)C1 [Compound 253],96%,,,,73%,,,,,,93%,104%,97%,
"Cc1ccc(CCn2c3c(c4cc(C(=O)O)ccc42)CN(C)CC3)cn1 [Compound 256, 2-Methyl-5-(2-(6-methylpyridin-3-yl)ethyl)-2,3,4,5-tetrahydro-1H-pyrido[4,3-b]indole-8-carboxylic acid]",,,,,-6%,,,,,2%,0%,4%,-1%,-16%
"Cc1ccc2c(c1)c1c(n2CC(=O)N2CCCC2)CCN(C)C1 [Compound 257, 2-(1,2,3,4-tetrahydro-2,8-dimethylpyrido[4,3-b]indol-5-yl)-1-(pyrrolidin-1-yl)ethanone]",−7%,,,,1%,,,,,,47%,20%,64%,
Cc1ccc2c(c1)c1c(n2CCc2ccc(C(=O)O)nc2)CCNC1 [Compound 262],,,,,-8%,,,,,6%,6%,−2%,81%,
"Cc1ccc2c(c1)c1c(n2CCC(=O)N2CCC(NC(=O)OC(C)(C)C)CC2)CCN(C)C1 [Compound 393, tert-butyl 1-(3-(1,2,3,4-tetrahydro-2,8-dimethylpyrido[4,3-b]indol-5-yl)propanoyl)piperidin-4-ylcarbamate]",,,,,3%,,,,,19%,26%,28%,28%,
"Cc1ccc2c(c1)c1c(n2CCc2ccc(C)[n+]([O-])c2)CCN(C)C1 [Compound 394, 5-(2-(2,8-dimethyl-3,4-dihydro-1H-pyrido[4,3-b]indol-5(2H)-yl)ethyl)-2-methylpyridine 1-oxide]",,,,,-2%,,,,,3%,−8%,19%,30%,
